Laboratory results taken from patent US20050112573A1, “Method of detecting toxic substance” (priority 2001, published 2005).

Test system: yeast genes (level of expressed mRNA)
Experiment: DNA chip analysis of expressed mRNA of yeast genes after 2 h culture with a toxic chemical substance
Format: cell-based, Saccharomyces cerevisiae S288C
Method: Yeast (Saccharomyces cerevtisiae S288C (α SUC2mal mel gap2 CUP1)) were cultured at 25° C. on YPD medium (yeast extract 1%, polypepton 2%, glucose 2%). One of toxic chemical substances was added to the cell at logarithmic growth phase, and the cell was further cultured for two hours. Cell was cultured without any chemical substance in the same condition, and was used as control. Concentrations of the chemical substances were defined to inhibit the growth of the yeast but not lead to death.
After the completion of cultivation, the culture was centrifuged to collect the cells. To the cells, sodium acetate buffer (50 mM sodium acetate, 10 mM EDTA, 1% SDS) was added, and the mixture was shaken at 65° C. for five minutes, followed by returning to room temperature, and obtaining the supernatant, which procedure was repeated two times. To the supernatant, ½ amount of a solution of phenol/chloroform was added, and the mixture was centrifuged to give a supernatant, which was added with an equal amount of chloroform, and the mixture was centrifuged to give a supernatant. To the supernatant, an equal amount of isopropanol containing 0.3 M sodium acetate was added, and the mixture was allowed to stand at room temperature for 30 minutes, after which the mixture was centrifuged to give a sediment of the whole RNAs. Seventy % ethanol was added to the sediment, and the mixture was again centrifuged to give a sediment, which was then dried and dissolved in water. mRNA was isolated from the whole RNAs as followings. In view of the fact that a poly A chain is attached to the 3′ terminus of mRNA, a polynucleotide having a poly T structure which was immobilized on the surface of latex beads was used to trap the mRNA, and then the mRNA was washed and eluted with spine column (Oligotex-dT30<Super>mRNA Purification Kit, Takara). Reverse transcription of the mRNA was conducted with a reverse transcriptase (Super Script II Reverse Transcriptase; catalogue No. 18064-014, GibcoBRL) using fluorescence-labeled nucleotides to give cDNAs that were introduced with Cy3-dUTP or Cy5-dUTP during the reverse transcription.
The labeled cDNAs were dissolved in TE buffer (10 mM Tris-HCl/1 mM EDTA, pH8.0), and the solution was dropped on the DNA chip containing the whole genes of yeast (DNA Chip Research Inc. Japan) so that the cDNAs were hybridized on the DNA chip at 65° C. for over 12 hours. The fluoresces intensity of the DNA chip was read with a scanner, and the ratio relative to the fluorescence intensity resulting from the absence of chemical substance was estimated as the following, which is shown in Tables 1 to 9: [formula]
In the Tables, “Intensity” indicated in the rightmost column is a value of the level of expressed mRNA of each gene in control cells as divided by the average level of the expressions of the whole genes.

SMILES: C[S+](C)[O-] [(15), dimethylsulfoxide]
- level of expressed mRNA in the presence of chemical substance/in its absence (gene YAL012W): 3.1
- The level of expressed mRNA in the presence of chemical substance/absence: YAL014C (gene YAL014C): 2.3
- The level of expressed mRNA in the presence of chemical substance/absence: YAL017W (gene YAL017W): 1.0
- The level of expressed mRNA in the presence of chemical substance/absence: YAL018C (gene YAL018C): 6.9
- level of expressed mRNA in the presence of chemical substance/in its absence (gene YAL038W): 3.1
- level of expressed mRNA in the presence of chemical substance/in its absence (gene YAL044C): 0.7
- The level of expressed mRNA in the presence of chemical substance/absence: YAL049C (gene YAL049C): 1.4
- level of expressed mRNA in the presence of chemical substance/in its absence (gene YAL054C): 0.9
- The level of expressed mRNA in the presence of chemical substance/absence: YAR047C (gene YAR047C): 0.5
- The level of expressed mRNA in the presence of chemical substance/absence: YAR064W (gene YAR064W): 1.9
- level of expressed mRNA in the presence of chemical substance/in its absence (gene YAR071W): 1.1
- level of expressed mRNA in the presence of chemical substance/in its absence (gene YBL001C): 1.0
- The level of expressed mRNA in the presence of chemical substance/absence: YBL044W (gene YBL044W): 0.7
- The level of expressed mRNA in the presence of chemical substance/absence: YBL100C (gene YBL100C): 1.0
- The level of expressed mRNA in the presence of chemical substance/absence: YBR012C (gene YBR012C): 1.1
- The level of expressed mRNA in the presence of chemical substance/absence: YBR013C (gene YBR013C): 1.1
- level of expressed mRNA in the presence of chemical substance/in its absence (gene YBR014C): 1.2
- level of expressed mRNA in the presence of chemical substance/in its absence (gene YBR023C): 2.8
- level of expressed mRNA in the presence of chemical substance/in its absence (gene YBR029C): 3.5
- level of expressed mRNA in the presence of chemical substance/in its absence (gene YBR035C): 0.7
- level of expressed mRNA in the presence of chemical substance/in its absence (gene YBR050C): 0.5
- The level of expressed mRNA in the presence of chemical substance/absence: YBR051W (gene YBR051W): 0.8
- The level of expressed mRNA in the presence of chemical substance/absence: YBR063C (gene YBR063C): 1.6
- The level of expressed mRNA in the presence of chemical substance/absence: YBR066C (gene YBR066C): 0.4
- level of expressed mRNA in the presence of chemical substance/in its absence (gene YBR068C): 1.6
- level of expressed mRNA in the presence of chemical substance/in its absence (gene YBR111C): 0.7
- The level of expressed mRNA in the presence of chemical substance/absence: YBR124W (gene YBR124W): 1.0
- The level of expressed mRNA in the presence of chemical substance/absence: YBR129C (gene YBR129C): 0.9
- level of expressed mRNA in the presence of chemical substance/in its absence (gene YBR145W): 1.2
- The level of expressed mRNA in the presence of chemical substance/absence: YBR162C (gene YBR162C): 1.9
- level of expressed mRNA in the presence of chemical substance/in its absence (gene YBR183W): 1.1
- level of expressed mRNA in the presence of chemical substance/in its absence (gene YBR222C): 4.3
- The level of expressed mRNA in the presence of chemical substance/absence: YBR255W (gene YBR255W): 1.0
- The level of expressed mRNA in the presence of chemical substance/absence: YBR281C (gene YBR281C): 1.0
- The level of expressed mRNA in the presence of chemical substance/absence: YBR287W (gene YBR287W): 1.3
- level of expressed mRNA in the presence of chemical substance/in its absence (gene YBR299W): 0.6
- level of expressed mRNA in the presence of chemical substance/in its absence (gene YCL009C): 6.5
- The level of expressed mRNA in the presence of chemical substance/absence: YCL044C (gene YCL044C): 4.4
- The level of expressed mRNA in the presence of chemical substance/absence: YCL056C (gene YCL056C): 1.7
- level of expressed mRNA in the presence of chemical substance/in its absence (gene YCL064C): 21.4
- The level of expressed mRNA in the presence of chemical substance/absence: YCR007C (gene YCR007C): 0.8
- level of expressed mRNA in the presence of chemical substance/in its absence (gene YCR037C): 1.0
- level of expressed mRNA in the presence of chemical substance/in its absence (gene YCR048W): 3.1
- level of expressed mRNA in the presence of chemical substance/in its absence (gene YCR098C): 11.0
- level of expressed mRNA in the presence of chemical substance/in its absence (gene YDL022W): 0.9
- The level of expressed mRNA in the presence of chemical substance/absence: YDL046W (gene YDL046W): 2.3
- The level of expressed mRNA in the presence of chemical substance/absence: YDL089W (gene YDL089W): 1.6
- The level of expressed mRNA in the presence of chemical substance/absence: YDL173W (gene YDL173W): 1.1
- The level of expressed mRNA in the presence of chemical substance/absence: YDL193W (gene YDL193W): 1.2
- The level of expressed mRNA in the presence of chemical substance/absence: YDL233W (gene YDL233W): 1.3
- level of expressed mRNA in the presence of chemical substance/in its absence (gene YDR009W): 3.2
- level of expressed mRNA in the presence of chemical substance/in its absence (gene YDR019C): 1.8
- The level of expressed mRNA in the presence of chemical substance/absence: YDR071C (gene YDR071C): 0.9
- The level of expressed mRNA in the presence of chemical substance/absence: YDR078C (gene YDR078C): 0.5
- The level of expressed mRNA in the presence of chemical substance/absence: YDR090C (gene YDR090C): 1.1
- The level of expressed mRNA in the presence of chemical substance/absence: YDR109C (gene YDR109C): 1.7
- The level of expressed mRNA in the presence of chemical substance/absence: YDR128W (gene YDR128W): 1.4
